Laboratory results: patent US20070213291A1, “Therapeutically useful synthetic oligonucleotides” (priority 1999, published 2007)

What was measured:
[1] = tested on: Jurkat human leukemia T cells; test: Inhibition of Jurkat human leukemia T cell proliferation (MTT reduction); assay type: cell-based; details: 100 μg/ml sequence, 48 h, 2.5×10^5 cells/ml
In short: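 Read-out is MTT absorbance at 570 nm after 48 h. Sequences of 2 to 45 bases (A, C, G, T) tested at 100 μg/ml against untreated control, with 2.5×10^5 Jurkat cells/ml held at 37° C under 5% CO2.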

[2] = tested on: Jurkat human leukemia T cells; test: Cell cycle stage in Jurkat cells (propidium iodide flow cytometry); assay type: cell-based; details: Jurkat, 24 h, 100 μg/ml
In short: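 Phase distribution (G0/G1, early, mid and late S, G2/M) came from flow cytometry with doublet discrimination on propidium iodide-stained nuclei. Jurkat cells were given 24 h exposure to 2–45-base oligonucleotides, or at 1×10^6 cells/ml to single 6-base GT or AC strands heated 10 min at 65 °C or 1:1 hybridized duplex.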

[3] = tested on: THP-1 human acute monocytic leukemia cells; test: Cytokine production by THP-1 cells (ELISA); assay type: cell-based; details: THP-1, 1×10^6 cells, 100 μg/ml, 48 h
In short: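 Read-out is fold increase in supernatant cytokine versus control cells, measured by ELISA (IL-12 ELISA counts p70 complex plus free p40). Unless noted, sequences were tested at 100 μg/ml on 1×10^6 cells, incubated 48 h, 37° C, 5% CO2.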

[4] = tested on: LNCaP human prostate cancer cells; test: LNCaP human prostate cancer xenografts in male nude nu/nu mice; assay type: in vivo; details: after 4 weeks of treatment, compared with other groups (group 1 saline, group 5 BCG A-3)
Procedure: LNCaP human prostate cancer cells are implanted subcutaneously, as xenografts, in male nude nu/nu mice. The mice are divided into 5 groups of 10 mice. On day 0, group 1 mice receive saline, group 2 mice receive 3 base SEQ ID NO:8, group 3 mice receive 6 base GT SEQ ID NO:25, group 4 mice receive 6 base AG SEQ ID NO:45 and group 5 mice receive 45 base BCG A-3 SEQ ID NO:69. After 4 weeks of treatment, the mice are sacrificed and timor mass is determined.

[5] = tested on: EL-4 murine T lymphoma cells; test: Inhibition of EL-4 cell proliferation (MTT); assay type: cell-based; details: 100 μg/ml, 48 h
Procedure: (§1) Cells were seeded in 6 (1 ml/well), 24 (0.5 ml/well) or 96 (0.1 ml/well) well flat-bottom microplates and were maintained at 37° C. in a 5% CO2 atmosphere. Unless stated otherwise, 2.5×10^5 cells/ml were incubated with 0 μg/ml (control) and 100 μg/ml (treated) of 2 to 45 base sequences containing A, C, G and T for 48 h.
(§2) Cell proliferation was measured using dimethylthiazol-diphenyl-tetrazolium (MTT) reduction (Mosman et al. J. Immunol. Methods 65:55, 1983). MTT was measured at a wavelength of 570 nm using a multiplate spectrophotometer reader (ELX800, Bio-TEK Instruments Inc., Winooski, Vt.).
EL-4 murine lymphoma T cells are a suspension tumor model. EL-4 murine lymphoma T cells were incubated with 6, 18, 27 and 33 base GT sequences and with a 15 base ACG sequence (Table 18).

[6] = tested on: D-17 canine osteosarcoma cells; test: Inhibition of D-17 cell proliferation (MTT); assay type: cell-based; details: 100 μg/ml, 48 h, 5×10^5 cells/ml
Procedure: as §1, §2
(§3) D-17 canine osteosarcoma cells and CF-51 canine mammary gland cancer cells are solid tumor models. D-17 canine osteosarcoma cells (5×10^5 cells/ml) (Table 20) and CF-51 canine mammary gland cancer cells (5×10^5 cells/ml) (Table 21) were incubated with 6, 9, 17, 27 and 33 base GT-sequences and with a 15 base ACG sequence.

[7] = tested on: CF-51 canine mammary gland cancer cells; test: Inhibition of CF-51 cell proliferation (MTT); assay type: cell-based; details: 100 μg/ml, 48 h, 5×10^5 cells/ml
Procedure: as §1, §2, §3

caspase 3 [8] = test: Active caspase 3 by FITC-conjugated antibody flow cytometry; assay type: cell-based, human; details: Jurkat, 72 h, 100 μg/ml, cytometric (FIG. 2A)
Procedure: (§4) To determine caspase activation, control and treated cells are washed, fixed, permeabilized and incubated with an FITC-conjugated antibody that recognizes the active form of the caspase (Pharmingen, San Diego, Calif.) using the conditions recommended by the manufacturer. Fluorescence associated with active caspase 3 is analyzed by flow cytometry on a FACSCALIBUR using the program CellQUEST (Becton Dickinson). Alternatively, caspase activation is determined colorimetrically using an assay based on the cleavage of a caspase-specific peptide conjugated to the color reporter molecule p-nitroanilide, which can be quantitated spectrophotometrically at a wavelength of 405 nm.
(§5) Jurkat T cell leukemia cells were incubated for 72 h with 33 base GT SEQ ID NO:66; 11 base GT SEQ ID NO:81 (bases 1-11 of GT SEQ ID NO:66), 11 base GT SEQ ID NO:82 (bases 12-22 of GT SEQ ID NO:66), 11 base GT SEQ ID NO:83 (bases 23-33 of GT SEQ ID NO:66) and 15 base ACG SEQ ID NO:67. Active caspase 3 (17-22 kDa) was determined using FITC conjugated antibody (Clone: C92-605) as in Example 28.

caspase 3 [9] = test: Caspase 3 activation, colorimetric (p-nitroanilide peptide cleavage); assay type: cell-based, human; details: Jurkat, 72 h, 100 μg/ml
Procedure: as §4, §5
Caspase 3 activation also was determined colorimetrically as in Example 28.
Jurkat T cell leukemia cells were incubated for 72 h with 6 base GT SEQ ID NO:25. Caspase 3 activation was determined colorimetrically as in Example 28.

[10] = Melting temperature (Tm) of sequences; assay type: physicochemical

TCCATCGCCAAGGAGATCGAGCTGGAGGATCCGTACGAGAAGATC (unmodified DNA) [BCG A-3, reference compound]
% INHIBITION of Jurkat human leukemia T cell proliferation [1]: 24%
% of cells in phase: G0/G1 [2]: 32.3%
% of cells in phase: G2/M [2]: 21.4%
% of cells in phase: SE [2]: 20.2%
% of cells in phase: SL [2]: 12.0%
% of cells in phase: SM [2]: 14.1%
Arrest (cell cycle) [2]: None
↑ IL-6 (fold increase treated vs control cells) [3]: 2.5x
↑ IL-12 (fold increase treated vs control cells) ([3]; p70 complex and free p40): 1.7x
tumor mass [4]: less tumor mass than group 1 mice

GTGTGTTTGGTGGTTTTGTTTGTTGTTTTTTTG (DNA, backbone not given here) [SEQ ID NO:66]
% INHIBITION of EL-4 murine T lymphoma cell proliferation [5]: −1%
% INHIBITION of D-17 canine osteosarcoma cell proliferation [6]: 23%
% INHIBITION of CF-51 canine mammary gland cancer cell proliferation [7]: 23%
processing of inactive pro-caspase 3 to active caspase 3 (caspase 3 [8]): induced processing of inactive pro-caspase 3 to active caspase 3
caspase 3 activity greater than in control cells (caspase 3 [9]): 105%

GGGTGGGGGTGGGGGTGGGGGTGG (unmodified DNA) [SEQ ID NO:70]
% INHIBITION of Jurkat human leukemia T cell proliferation [1]: 13%
melting temperature (Tm) [10]: 86.3 °C

GGGTGGGGGTGG [SEQ ID NO:68]
% INHIBITION of Jurkat human leukemia T cell proliferation [1]: 18%
melting temperature (Tm) [10]: 56.8 °C
